Laboratory results as given in patent US11780826B2 (Amgen Inc., priority 2017, dated 2023).

These compounds were tested on Bovine cardiac myofibrils (assay: In vitro model of dose-dependent myofibril ATPase modulation (AC1.4, pyruvate kinase/lactate dehydrogenase-coupled ATPase assay at pCa25)). Details: concentration at which ATPase activity was 1.4-fold higher than the bottom of the dose curve, mean of a minimum of two independent tests.
Type: biochemical
Outline: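 We measure calcium-buffered ATPase activity of detergent-skinned bovine cardiac myofibrils at pH 6.80 and 22° C with 1 mM ATP, using a PK/LDH-coupled NADH readout at 340 nm. Values come from four-parameter dose-response fits, averaged over at least two independent runs.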
For `CS(=O)(=O)c1cncc(C(=O)N2CCC(C(F)(F)F)C2C(=O)N[C@@H](c2cc(F)c(C(F)(F)F)cc2F)C2CC2)c1` (stereo partly drawn) [Example 241, N-((R)-cyclopropyl(2,5-difluoro-4-(trifluoromethyl)phenyl)methyl)-1-(5-(methylsulfonyl)nicotinoyl)-3-(trifluoromethyl)pyrrolidine-2-carboxamide], the AC1.4 was 0.5692 µM. Work on `COc1cccc2c1CCC2NC(=O)[C@H]1CCCN1C(=O)[C@H]1CCCN(S(=O)(=O)N2CC(C#N)C2)C1` (stereo partly drawn) [Example 242, (2R)-1-((S)-1-((3-cyanoazetidin-1-yl)sulfonyl)piperidine-3-carbonyl)-N-(4-methoxy-2,3-dihydro-1H-inden-1-yl)pyrrolidine-2-carboxamide] yielded an AC1.4 of 0.573 µM. `Cc1ccc(CNC(=O)[C@H]2CCCN2C(=O)[C@H]2CCCN(S(=O)(=O)N3CC(C#N)C3)C2)cc1` [Example 243, 1-(((3S)-1-((3-cyano-1-azetidinyl)sulfonyl)-3-piperidinyl)carbonyl)-N-(4-methylbenzyl)-D-prolinamide] showed an AC1.4 of 0.5746 µM. `CS(=O)(=O)c1cccc(C(=O)N2[C@@H](C(=O)NC(c3ccc(C(F)(F)F)cc3F)C3CNC(=O)C3)C[C@H]3C[C@H]32)c1` (stereo partly drawn) [Example 244, (1R,3R,5R)-N-((2-fluoro-4-(trifluoromethyl)phenyl)(5-oxopyrrolidin-3-yl)methyl)-2-(3-(methylsulfonyl)benzoyl)-2-azabicyclo[3.1.0]hexane-3-carboxamide] was tested, and the AC1.4 was 0.5793 µM. Work on `CC[C@@H](NC(=O)[C@H]1CCCN1C(=O)[C@H]1CCCN(S(=O)(=O)N2CC(C#N)C2)C1)c1cc(F)cc(F)c1` [Example 245, 1-(((3S)-1-((3-cyano-1-azetidinyl)sulfonyl)-3-piperidinyl)carbonyl)-N-((1R)-1-(3,5-difluorophenyl)propyl)-D-prolinamide] yielded an AC1.4 of 0.582 µM. `CCS(=O)(=O)c1cccc(C(=O)N2[C@@H](C(=O)N[C@@H](c3ccc(C(F)(F)F)cc3F)C3CC3)C[C@H]3C[C@H]32)c1` [Example 246, (1R,3R,5R)-N-((R)-cyclopropyl(2-fluoro-4-(trifluoromethyl)phenyl)methyl)-2-(3-(ethylsulfonyl)benzoyl)-2-azabicyclo[3.1.0]hexane-3-carboxamide] showed an AC1.4 of 0.582 µM. Work on `O=C(N[C@@H](c1ccc(C(F)(F)F)cc1F)C1CC1)[C@H]1CCCN1C(=O)c1cccc(C2(F)CN(S(=O)(=O)C3CC3)C2)c1` [Example 247, N-((R)-cyclopropyl(2-fluoro-4-(trifluoromethyl)phenyl)methyl)-1-(3-(1-(cyclopropylsulfonyl)-3-fluoro-3-azetidinyl)benzoyl)-D-prolinamide] yielded an AC1.4 of 0.5868 µM. Compound `C[C@@H](NC(=O)[C@H]1CCCN1C(=O)[C@H]1CCCN(S(=O)(=O)N2CC(C#N)C2)C1)c1ccc(C(F)F)cc1` [Example 248, 1-(((3S)-1-((3-cyano-1-azetidinyl)sulfonyl)-3-piperidinyl)carbonyl)-N-((1R)-1-(4-(difluoromethyl)phenyl)ethyl)-D-prolinamide] has an AC1.4 of 0.5915 µM. For `O=C(N[C@@H](c1ccc(C(F)(F)F)cc1F)C1CC1)[C@H]1C[C@H]2C[C@H]2N1C(=O)c1cccc(S(=O)(=O)CCO)c1` [Example 249, (1R,3R,5R)-N-((R)-cyclopropyl(2-fluoro-4-(trifluoromethyl)phenyl)methyl)-2-(3-((2-hydroxyethyl)sulfonyl)benzoyl)-2-azabicyclo[3.1.0]hexane-3-carboxamide], the AC1.4 was 0.5932 µM. `N#Cc1ccc(CNC(=O)[C@H]2CCCN2C(=O)c2cccc(S(=O)(=O)N3CC(C#N)C3)c2)cc1` [Example 250, 1-((3-((3-cyano-1-azetidinyl)sulfonyl)phenyl)carbonyl)-N-(4-cyanobenzyl)-D-prolinamide] showed an AC1.4 of 0.5978 µM. With `N#CC1CN(S(=O)(=O)c2cccc(C(=O)N3C[C@@H](O)C[C@@H]3C(=O)NCc3ccc(C(F)(F)F)cc3)c2)C1` [Example 251, (4S)-1-((3-((3-cyano-1-azetidinyl)sulfonyl)phenyl)carbonyl)-4-hydroxy-N-(4-(trifluoromethyl)benzyl)-D-prolinamide] the AC1.4 was 0.6055 µM. `O=C(N[C@@H](c1ccc(C(F)(F)F)cc1F)C1CC1)[C@H]1CCCN1C(=O)c1cccc(C(F)(F)F)c1` [Example 252, N-((R)-cyclopropyl(2-fluoro-4-(trifluoromethyl)phenyl)methyl)-1-(3-(trifluoromethyl)benzoyl)-D-prolinamide] was tested, and the AC1.4 was 0.6066 µM. In the case of `CS(=O)(=O)c1cccc(C(=O)N2CCCC[C@@H]2C(=O)N[C@@H](c2ccc(C(F)(F)F)cc2F)C2CC2)c1` [Example 253, (2R)-N-((R)-cyclopropyl(2-fluoro-4-(trifluoromethyl)phenyl)methyl)-1-(3-(methylsulfonyl)benzoyl)-2-piperidinecarboxamide], the AC1.4 is reported as 0.6092 µM. With `C[C@@H](NC(=O)[C@H]1CCCN1C(=O)[C@@H]1CN(S(=O)(=O)N2CC(C#N)C2)CCN1)c1ccc(Cl)cc1F` [Example 254, N-((1R)-1-(4-chloro-2-fluorophenyl)ethyl)-1-(((2S)-4-((3-cyano-1-azetidinyl)sulfonyl)-2-piperazinyl)carbonyl)-D-prolinamide] the AC1.4 was 0.6139 µM. `CS(=O)(=O)c1cccc(C(=O)N2CCC[C@@H]2C(=O)N[C@@H](c2ccc(Cl)c(F)c2)C2COC2)c1` [Example 255, N-((R)-(4-chloro-3-fluorophenyl)(3-oxetanyl)methyl)-1-(3-(methylsulfonyl)benzoyl)-D-prolinamide] gave an AC1.4 of 0.6167 µM. `Cc1ccc(CNC(=O)[C@H]2CCCN2C(=O)[C@H]2CCCN(S(=O)(=O)N3CC(C#N)C3)C2)c(C)c1` [Example 256, 1-(((3S)-1-((3-cyano-1-azetidinyl)sulfonyl)-3-piperidinyl)carbonyl)-N-(2,4-dimethylbenzyl)-D-prolinamide] showed an AC1.4 of 0.632 µM. `N#CC1CN(S(=O)(=O)N2CCN[C@H](C(=O)N3CCC[C@@H]3C(=O)NCc3ccc(Cl)c(Cl)c3)C2)C1` [Example 257, 1-(((2S)-4-((3-cyano-1-azetidinyl)sulfonyl)-2-piperazinyl)carbonyl)-N-(3,4-dichlorobenzyl)-D-prolinamide] gave an AC1.4 of 0.6321 µM. `COC1CN(S(=O)(=O)c2cccc(C(=O)N3CCC[C@@H]3C(=O)NCc3ccc(C(F)(F)F)cc3)c2)C1` [Example 258, 1-((3-((3-methoxy-1-azetidinyl)sulfonyl)phenyl)carbonyl)-N-(4-(trifluoromethyl)benzyl)-D-prolinamide] showed an AC1.4 of 0.6326 µM. `CC[C@@H](NC(=O)[C@H]1CCCN1C(=O)c1cccc(S(=O)(=O)N(C)C)c1)c1ccc(Cl)c(F)c1` [Example 259, N-((1R)-1-(4-chloro-3-fluorophenyl)propyl)-1-(3-(dimethylsulfamoyl)benzoyl)-D-prolinamide] showed an AC1.4 of 0.6372 µM. In the case of `N#CC1CN(S(=O)(=O)c2cccc(C(=O)N3CCC[C@@H]3C(=O)NCc3ccc(Cl)nc3)c2)C1` [Example 260, N-((6-chloro-3-pyridinyl)methyl)-1-((3-((3-cyano-1-azetidinyl)sulfonyl)phenyl)carbonyl)-D-prolinamide], the AC1.4 is reported as 0.639 µM. `CS(=O)(=O)c1ccc(C(=O)N2C[C@@H](F)C[C@@H]2C(=O)N[C@@H](c2cc(F)c(Cl)cc2F)C2CC2)cn1` [Example 262, (4S)-N-((R)-(4-chloro-2,5-difluorophenyl)(cyclopropyl)methyl)-4-fluoro-1-((6-(methylsulfonyl)-3-pyridinyl)carbonyl)-D-prolinamide] was tested, and the AC1.4 was 0.6468 µM. `CC(C)(C(N)=O)c1cccc(C(=O)N2[C@@H](C(=O)N[C@@H](c3cc(F)c(Cl)cc3F)C3COC3)C[C@H]3C[C@H]32)c1` [Example 263, (1R,3R,5R)-2-(3-(1-amino-2-methyl-1-oxo-2-propanyl)benzoyl)-N-((R)-(4-chloro-2,5-difluorophenyl)(3-oxetanyl)methyl)-2-azabicyclo[3.1.0]hexane-3-carboxamide] gave an AC1.4 of 0.6526 µM. Work on `CS(=O)(=O)c1cccc(C(=O)N2[C@@H](C(=O)N[C@@H](c3ccc(Cl)c(F)c3)C3COC3)C[C@H]3C[C@H]32)c1` [Example 264, (1R,3R,5R)-N-((R)-(4-chloro-3-fluorophenyl)(3-oxetanyl)methyl)-2-(3-(methylsulfonyl)benzoyl)-2-azabicyclo[3.1.0]hexane-3-carboxamide] yielded an AC1.4 of 0.6615 µM. With `O=C(N[C@@H](c1cc(F)c(Cl)cc1F)C1CC1)[C@H]1C[C@H]2C[C@H]2N1C(=O)c1cc(C(F)(F)F)ccn1` [Example 266, (1R,3R,5R)-N-((R)-(4-chloro-2,5-difluorophenyl)(cyclopropyl)methyl)-2-((4-(trifluoromethyl)-2-pyridinyl)carbonyl)-2-azabicyclo[3.1.0]hexane-3-carboxamide] the AC1.4 was 0.6674 µM. In the case of `N#CC1CN(S(=O)(=O)N2CCC[C@H](C(=O)N3CCC[C@@H]3C(=O)NC(c3ccccc3)c3ccc(Cl)cc3)C2)C1` (stereo partly drawn) [Example 268, (2R)-N-((4-chlorophenyl)(phenyl)methyl)-1-((S)-1-((3-cyanoazetidin-1-yl)sulfonyl)piperidine-3-carbonyl)pyrrolidine-2-carboxamide], the AC1.4 is reported as 0.6764 µM. For `CS(=O)(=O)c1ccnc(C(=O)N2C[C@@H](F)C[C@@H]2C(=O)N[C@@H](c2cc(F)c(Cl)cc2F)C2CC2)c1` [Example 269, (4S)-N-((R)-(4-chloro-2,5-difluorophenyl)(cyclopropyl)methyl)-4-fluoro-1-((4-(methylsulfonyl)-2-pyridinyl)carbonyl)-D-prolinamide], the AC1.4 was 0.6767 µM. `C[C@H]1[C@@H](C(=O)N2CCC[C@@H]2C(=O)NCc2ccc(C(F)(F)F)cc2)CCCN1S(=O)(=O)N1CC(C#N)C1` [Example 271, 1-(((2S,3S)-1-((3-cyano-1-azetidinyl)sulfonyl)-2-methyl-3-piperidinyl)carbonyl)-N-(4-(trifluoromethyl)benzyl)-D-prolinamide] showed an AC1.4 of 0.6874 µM. `N#CC1CN(S(=O)(=O)N2CCC[C@H](C(=O)N3CCC[C@@H]3C(=O)NCc3ccc(F)c(Cl)c3)C2)C1` [Example 272, N-(3-chloro-4-fluorobenzyl)-1-(((3S)-1-((3-cyano-1-azetidinyl)sulfonyl)-3-piperidinyl)carbonyl)-D-prolinamide] gave an AC1.4 of 0.6904 µM.
